Results on two molecules are retold here after publication PMC9100275, “Development of 1-(4-(Substituted)piperazin-1-yl)-2-((2-((4-methoxybenzyl)thio)pyrimidin-4-yl)oxy)ethanones That Target Poly (ADP-Ribose) Polymerase in Human Breast Cancer Cells” (Molecules, 2022).

Read-outs that look alike come from different tables or passages of the source.

Test [1] addresses T1, PARP1 (Homo sapiens, UniProt P09874). The test is described as follows: colorimetric PARP activity assay with recombinant human PARP enzyme; % inhibition at […] ([…] at […]). Type of test: biochemical.
For test [2], the target named is T1, PARP1. Described as above. Type of test: biochemical. This is another data set of the same source.

In general, inhibition refers to the change of the read-out against control, counted positive when it falls.

T1 sequence (P09874 2-1014): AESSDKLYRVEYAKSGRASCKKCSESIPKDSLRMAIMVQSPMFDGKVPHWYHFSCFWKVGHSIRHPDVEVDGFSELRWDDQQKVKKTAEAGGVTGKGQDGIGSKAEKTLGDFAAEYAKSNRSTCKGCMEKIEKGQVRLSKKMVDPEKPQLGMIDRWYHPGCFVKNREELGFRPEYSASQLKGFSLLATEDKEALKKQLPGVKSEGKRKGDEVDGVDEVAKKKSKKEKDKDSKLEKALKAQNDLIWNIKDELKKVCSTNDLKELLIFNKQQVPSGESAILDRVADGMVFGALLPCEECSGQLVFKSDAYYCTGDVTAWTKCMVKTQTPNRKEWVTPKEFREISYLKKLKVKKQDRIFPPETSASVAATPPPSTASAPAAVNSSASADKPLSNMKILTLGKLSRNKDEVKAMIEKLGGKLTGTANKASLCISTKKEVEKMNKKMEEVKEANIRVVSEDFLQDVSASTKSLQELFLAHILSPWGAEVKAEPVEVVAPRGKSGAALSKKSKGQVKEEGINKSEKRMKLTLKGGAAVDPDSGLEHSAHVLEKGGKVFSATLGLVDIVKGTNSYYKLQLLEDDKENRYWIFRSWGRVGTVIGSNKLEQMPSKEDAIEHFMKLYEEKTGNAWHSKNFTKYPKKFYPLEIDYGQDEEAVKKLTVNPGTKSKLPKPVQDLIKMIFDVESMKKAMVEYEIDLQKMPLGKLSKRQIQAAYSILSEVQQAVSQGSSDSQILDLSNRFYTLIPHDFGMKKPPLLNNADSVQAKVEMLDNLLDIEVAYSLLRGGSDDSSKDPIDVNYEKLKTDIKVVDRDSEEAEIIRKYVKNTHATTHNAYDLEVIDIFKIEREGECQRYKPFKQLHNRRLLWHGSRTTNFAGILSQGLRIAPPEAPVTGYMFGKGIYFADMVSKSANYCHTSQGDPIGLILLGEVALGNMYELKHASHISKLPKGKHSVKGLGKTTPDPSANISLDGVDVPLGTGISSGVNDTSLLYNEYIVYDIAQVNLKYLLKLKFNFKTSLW

As for `COc1ccc(CSc2nccc(OCC(=O)N3CCN(c4cccc(Cl)c4Cl)CC3)n2)cc1` [5a, 1-(4-(2,3-Dichlorophenyl)piperazin-1-yl)-2-((2-((4-methoxybenzyl)thio)pyrimidin-4-yl)oxy)ethanone], on PARP1 [1], the inhibition at 10 µM is 70.3%.

Take `COc1ccc(CSc2nccc(OCC(=O)N3CCN(c4ccc(C)cc4)CC3)n2)cc1` [5e, 2-((2-((4-Methoxybenzyl)thio)pyrimidin-4-yl)oxy)-1-(4-(p-tolyl)piperazin-1-yl)ethanone]: the inhibition at 10 µM at PARP1 [2] worked out at 53%.
